Here are results for one molecule from PMC12477080, “Polychlorinated biphenyls (PCBs) interact with drug metabolism in vivo” (Archives of Toxicology, 2025).

The test system of one data set is CYP1A2. The experiment in a line: CYP phenotyping cocktail clinical study: caffeine/paraxanthine metabolic ratio and its association with PCB plasma levels. As for the experimental part:
(§1) The participants were ascertained not to have any acute disease by medical history, physical examination, laboratory screening, including hematological and biochemical blood tests, and a 12-lead electrocardiogram. […] The demographic data of the subjects are summarized in Table 1 in the supplemental data. At the enrollment visit, 2 blood samples (9 ml each) were collected into ethylenediaminetetraacetic acid (EDTA)-containing tubes taken from each subject for analyzing the plasma concentrations of PCB congeners and for pharmacogenetic analysis.
(§2) Participants stayed fasted from the evening before until 3 h after drug administration. After that, a meal was provided. Water and juice were permitted but alcoholic and caffeinated beverages were not allowed from the evening before drug administration until the last blood sample was taken on the next day. Venous blood samples (9 ml each) were collected through an intravenous catheter immediately before and 0.25, 0.5, 0.75, 1, 1.5, 2, 2.5, 3, 4, 5, 6, 7, 8, and 24 h after drug administration. Blood was drawn into EDTA-coated tubes, centrifuged at 1500 g for 10 min at 4 °C, and plasma samples were subsequently stored at − 80 °C until further analysis. After completely voiding the bladder immediately before drug administration, the participants collected urine from 0 to 24 h after drug administration. After weighing the collected urine, a 10 ml aliquot of each fraction was taken.
(§3) Commercially sourced standards and internal standards were used for quantification (see Supplemental Materials). In brief, 20 µl of the plasma samples were protein-precipitated with 80 µl methanol containing all internal standards or were treated for 16 h at 37 °C with 2 µl β-glucuronidase (1,000,000 Units) for deconjugation before protein precipitation with 78 µl methanol containing internal standards. Samples were centrifuged for 20 min, at 4 °C and 17,000 × g, and 40 µl of the supernatants were diluted with 40 µl LC–MS grade water, centrifuged again for 5 min at 4 °C and 17,000 × g and 50 µl supernatant were transferred to LC–MS vials 5 µl of the samples were injected into the LC–MS system.
An Agilent 1290 Infinity II UHPLC coupled with a SCIEX QTRAP6500 + triple quadrupole mass spectrometer was used. […]
Partial areas under the plasma concentration–time curves from 0 to 3 h (AUC0–3 h), from 0 to 4 h (AUC0–4 h), and from 0 to 8 h (AUC0–8 h) were calculated based on measured concentrations by the linear trapezoidal rule without extrapolation. […] Metabolic ratios (MR) were calculated by dividing the partial AUC of the metabolite by the respective partial AUC of the parent drug. […]

The next data set addresses T1, Human CYP1A2 (Homo sapiens, UniProt P05177).
T1 construct: purchased; host or cells: insect cells
T1 sequence (P05177 2-516 limits assumed): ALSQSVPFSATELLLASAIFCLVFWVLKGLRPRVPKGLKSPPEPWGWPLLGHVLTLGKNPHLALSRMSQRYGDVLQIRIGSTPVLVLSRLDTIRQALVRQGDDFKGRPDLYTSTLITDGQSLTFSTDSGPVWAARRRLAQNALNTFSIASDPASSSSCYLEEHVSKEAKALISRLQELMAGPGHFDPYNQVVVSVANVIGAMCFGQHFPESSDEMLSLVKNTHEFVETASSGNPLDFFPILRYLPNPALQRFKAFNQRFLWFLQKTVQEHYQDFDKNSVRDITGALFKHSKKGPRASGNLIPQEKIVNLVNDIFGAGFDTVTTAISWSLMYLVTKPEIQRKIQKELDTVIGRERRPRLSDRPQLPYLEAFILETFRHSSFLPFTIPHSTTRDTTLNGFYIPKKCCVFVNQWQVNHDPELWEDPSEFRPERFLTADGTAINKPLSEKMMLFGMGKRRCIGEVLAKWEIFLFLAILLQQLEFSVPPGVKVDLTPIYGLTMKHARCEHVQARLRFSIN
Nature of the data set: In vitro metabolism by CYP1A2 Supersomes. Format: in vitro ADME. The conditions noted are these: 10 µM substrate, 50 pmol/mL CYP1A2 supersomes, 2 mM NADPH; 1 h (phenacetin), 1 and 4 h (PCB118). The protocol:
To investigate the metabolism of PCB118 by CYP1A2, incubation assays were conducted using CYP1A2 supersomes in a total reaction volume of 100 µL. Reaction mixtures were assembled on ice. […] Reactions were initiated by the addition of CYP1A2 supersomes.
To assess potential non-enzymatic transformations and confirm NADPH-dependent metabolism, control incubations were performed under the following conditions: buffer and enzyme only (no-substrate control), substrate, buffer, and NADPH without enzyme (no-enzyme control), and substrate, buffer, and enzyme without NADPH (no-NADPH control). Each experimental condition was conducted in triplicate, while control conditions were performed as single replicates.
The resulting supernatants (100 µL) were transferred to LC–MS vials, yielding samples with 80% methanol content for analysis. For the detection of hydroxylated PCB metabolites, reactions were stopped by adding 500 µL methanol, followed by the addition of 50 µL of an internal standard mix (10 ng/mL). Samples were vortexed for 1 min and centrifuged at 4,500 rpm for 10 min. The resulting supernatants were transferred to glass LC vials and evaporated under a nitrogen stream at 45 °C until approximately 50 µL remained. Samples were then reconstituted in 100 µL of 0.1 M ammonium acetate buffer (pH 5.3) before transfer to inserts for LC–MS analysis.
To determine whether PCB118 serves as a substrate for CYP1A2 and could act as a competitive inhibitor for other CYP1A2 substrates, we conducted in vitro metabolism experiments. […] In parallel, CYP1A2-mediated metabolism of PCB118 was assessed. […] The identity of 4-OH-CB107 was verified by comparison with an authentic reference standard, showing identical retention time and spectral characteristics (supplemental Fig. 1).

The subject of another data set is CYP2C9. The experiment in a line: CYP phenotyping cocktail clinical study: torsemide/OH-torsemide metabolic ratio and its association with PCB plasma levels. The conditions noted are these: linear regression of MR AUC0–8 h OH-torsemide/torsemide (CYP2C9 activity) on PCB plasma concentration. The protocol: as §1, §2, §3
An Agilent 1290 Infinity II UHPLC coupled with a SCIEX QTRAP6500 + triple quadrupole mass spectrometer was used. Chromatographic separation was achieved on an Agilent Poroshell 120 EC-C18 (1.9 µm, 2.1 × 50 mm) column with A: 0.1% formic acid in water and B: methanol with a flow rate of 0.7 ml/min and a total run time of 8.5 min. Analytes were eluted using a gradient program. The following gradient steps represent gradual changes in % B over time: 5% B from 0 to 0.2 min, 30% B at 2 min, 34% B at 4.8 min, 95% B at 6.5 min, 95% B at 7.5 min and re-equilibrating to 5% B at 7.7 min and 5%B till 8.5 min. A representative chromatogram is shown in supplemental Fig. 2. The scheduled MRM mode was applied for analyte detection in both positive and negative ESI modes (Supplementary Table 4). Calibration curves were constructed with linear regression using weighted (1/x^2) models (detailed information in supplemental methods).
Partial areas under the plasma concentration–time curves from 0 to 3 h (AUC0–3 h), from 0 to 4 h (AUC0–4 h), and from 0 to 8 h (AUC0–8 h) were calculated based on measured concentrations by the linear trapezoidal rule without extrapolation. […] Metabolic ratios (MR) were calculated by dividing the partial AUC of the metabolite by the respective partial AUC of the parent drug. The MRs were used as biomarkers for the individual CYP activities of the study subjects.

As to `Clc1ccc(-c2cc(Cl)c(Cl)cc2Cl)cc1Cl` [PCB118], the “association with CYP1A2 activity in hierarchical generalized mixed model” value in the data set on CYP1A2 (adjusted for co-factors (smoking status, gender, BMI, age)) is “became significant when smoking status was included as a co-factor”. Moreover, in the data set on CYP1A2 (linear regression, MR paraxanthine/caffeine on PCB118 plasma concentration), the “proportion of variability in CYP1A2 activity explained” value is ~ 15.5%. In addition, at Human CYP1A2, the “CYP1A2-mediated metabolism of the substrate” value was “catalyzed the hydroxylation of PCB118, leading to the formation of 4-OH-CB107”. Also, in the data set with CYP2C9, the t value was 1,339 and the “β (standardized regression coefficient)” value is given as 0,301. In the data set on CYP2C9 (PM excl), the t value is 1,228 and the “β (standardized regression coefficient)” value was 0,286.
